US20200291018A1, “TAM KINASE INHIBITORS” (SYROS PHARMACEUTICALS, INC., priority 2017, published 2020)
pIC50: −log10 of the molar value.

Assays:
[1] = target: T1, MERTK (Homo sapiens, UniProt Q12866); test: TR-FRET kinase activity assay, MERTK; type: biochemical; settings: for pIC50: TR-FRET activity assay, ATP at Km, 60 minutes, read-out: Mer IC50; for Mer/Flt3 ratio (FLT3 IC50/Mer IC50): ratio calculated as FLT3 IC50/Mer IC50
T1 sequence (Q12866 21-999): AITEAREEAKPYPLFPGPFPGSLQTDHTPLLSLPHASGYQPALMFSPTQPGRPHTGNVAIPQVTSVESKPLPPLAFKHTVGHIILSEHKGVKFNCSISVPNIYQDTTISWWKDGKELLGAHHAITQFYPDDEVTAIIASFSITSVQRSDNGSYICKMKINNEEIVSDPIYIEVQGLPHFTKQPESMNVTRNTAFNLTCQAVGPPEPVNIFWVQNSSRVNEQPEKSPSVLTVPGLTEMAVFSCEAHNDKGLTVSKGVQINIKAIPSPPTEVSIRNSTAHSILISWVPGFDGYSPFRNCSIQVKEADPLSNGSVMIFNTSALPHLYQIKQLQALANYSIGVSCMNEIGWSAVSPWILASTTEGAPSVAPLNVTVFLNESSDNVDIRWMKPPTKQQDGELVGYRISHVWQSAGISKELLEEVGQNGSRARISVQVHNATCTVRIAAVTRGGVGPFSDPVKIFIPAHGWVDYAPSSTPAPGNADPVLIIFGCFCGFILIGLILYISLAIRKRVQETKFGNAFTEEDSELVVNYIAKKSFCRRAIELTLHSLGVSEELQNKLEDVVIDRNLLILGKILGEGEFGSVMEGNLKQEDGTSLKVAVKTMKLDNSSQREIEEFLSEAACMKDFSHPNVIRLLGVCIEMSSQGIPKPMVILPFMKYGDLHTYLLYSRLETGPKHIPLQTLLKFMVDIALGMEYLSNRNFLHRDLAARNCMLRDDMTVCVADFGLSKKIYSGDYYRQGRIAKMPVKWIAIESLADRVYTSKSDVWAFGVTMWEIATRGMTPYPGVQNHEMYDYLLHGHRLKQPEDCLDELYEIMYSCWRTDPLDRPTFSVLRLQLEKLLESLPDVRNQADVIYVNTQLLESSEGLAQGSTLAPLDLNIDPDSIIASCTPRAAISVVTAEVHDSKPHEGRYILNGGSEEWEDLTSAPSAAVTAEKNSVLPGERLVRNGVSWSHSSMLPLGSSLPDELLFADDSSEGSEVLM
Method in brief: (§1)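 Each kinase phosphorylates a fluorescently labeled peptide on tyrosine in the presence of compound, with ATP at its Km, for 60 min at RT in HEPES pH 7.5 buffer with MgCl2, EGTA, Brij 35 and DTT. Product is detected by TR-FRET with a Europium-labeled phospho-specific antibody; IC50 values follow.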

[2] = target: T2, TYRO3 (Homo sapiens, UniProt Q06418); test: TR-FRET kinase activity assay, TYRO3; type: biochemical; settings: ATP at Km, 60 minutes
T2 sequence (Q06418 41-890): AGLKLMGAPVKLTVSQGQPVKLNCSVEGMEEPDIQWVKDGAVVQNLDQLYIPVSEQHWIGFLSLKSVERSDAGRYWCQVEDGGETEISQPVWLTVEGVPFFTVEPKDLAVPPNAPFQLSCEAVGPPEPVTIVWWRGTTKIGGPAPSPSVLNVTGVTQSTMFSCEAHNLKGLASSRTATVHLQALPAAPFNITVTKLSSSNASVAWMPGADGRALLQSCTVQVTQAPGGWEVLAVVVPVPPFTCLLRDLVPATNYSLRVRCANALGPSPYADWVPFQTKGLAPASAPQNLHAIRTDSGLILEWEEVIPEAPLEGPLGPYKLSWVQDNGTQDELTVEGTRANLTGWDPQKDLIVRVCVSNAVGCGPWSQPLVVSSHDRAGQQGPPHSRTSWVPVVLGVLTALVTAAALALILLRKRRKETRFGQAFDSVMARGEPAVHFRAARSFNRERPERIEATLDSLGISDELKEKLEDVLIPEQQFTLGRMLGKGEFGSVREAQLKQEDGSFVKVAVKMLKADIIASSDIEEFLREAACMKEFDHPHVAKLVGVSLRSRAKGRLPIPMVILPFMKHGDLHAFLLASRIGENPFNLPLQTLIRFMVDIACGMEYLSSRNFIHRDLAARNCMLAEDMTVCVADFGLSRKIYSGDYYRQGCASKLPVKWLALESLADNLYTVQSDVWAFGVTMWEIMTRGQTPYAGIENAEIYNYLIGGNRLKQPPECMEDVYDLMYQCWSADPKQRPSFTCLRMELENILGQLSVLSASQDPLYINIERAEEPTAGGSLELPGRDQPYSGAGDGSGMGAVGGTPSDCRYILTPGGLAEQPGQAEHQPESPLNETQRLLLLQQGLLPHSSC
Method in brief: as §1

| pIC50 [1] | Mer/Flt3 ratio (FLT3 IC50/Mer IC50) [1] | pIC50 [2] | Structure (SMILES) |
| --- | --- | --- | --- |
| ≥ 7.00 | +++ (a ratio of >100) | 6.00 to 7.00 | CCCC(C)Nc1ncc2c(OC3CCC(F)(F)CC3)ncc([C@H]3CC[C@H](O)CC3)c2n1 (stereo partly drawn) [Compound 153] |
| ≥ 7.00 | +++ (a ratio of >100) | ≥ 7.00 | CCCC(C)Nc1ncc2c(NC3CCN(C)CC3)ncc([C@H]3CC[C@H](O)CC3)c2n1 (stereo partly drawn) [Compound 154] |
| ≥ 7.00 | +++ (a ratio of >100) | ≥ 7.00 | CCCC(C)Nc1ncc2c(N3CCC(NC)CC3)ncc([C@H]3CC[C@H](O)CC3)c2n1 (stereo partly drawn) [Compound 155] |
| ≥ 7.00 | ++ (a ratio of between 10 and 100) | ≥ 7.00 | CCCC(C)Nc1ncc2c(N3CC[C@@H](N(C)C)C3)ncc([C@H]3CC[C@H](O)CC3)c2n1 (stereo partly drawn) [Compound 156] |
| ≥ 7.00 | ++ (a ratio of between 10 and 100) | ≥ 7.00 | CCCC(C)Nc1ncc2c(OC[C@H]3CC[C@@H](O)CC3)ncc([C@H]3CC[C@H](O)CC3)c2n1 (stereo partly drawn) [Compound 157] |
| ≥ 7.00 | +++ (a ratio of >100) | ≥ 7.00 | CCCC(C)Nc1ncc2c(NC3CCNCC3)ncc([C@H]3CC[C@H](O)CC3)c2n1 (stereo partly drawn) [Compound 158] |
| ≥ 7.00 | ++ (a ratio of between 10 and 100) | ≥ 7.00 | CCCC(C)Nc1ncc2c(N3CC[C@H](N(C)C)C3)ncc([C@H]3CC[C@H](O)CC3)c2n1 (stereo partly drawn) [Compound 159] |
| ≥ 7.00 | +++ (a ratio of >100) | ≥ 7.00 | CCCC(C)Nc1ncc2c(OC[C@H]3CC[C@H](O)CC3)ncc([C@H]3CC[C@H](O)CC3)c2n1 (stereo partly drawn) [Compound 160] |
| ≥ 7.00 | +++ (a ratio of >100) | ≥ 7.00 | CCCC(C)Nc1ncc2c(OC3CC(C)(C)N(C)C(C)(C)C3)ncc([C@H]3CC[C@H](O)CC3)c2n1 (stereo partly drawn) [Compound 161] |
| 5.00 to 6.00 | + (a ratio of >2.0 and <10) | 5.00 to 6.00 | CN1CCC(Nc2ncc3c(OC4CCNCC4)ncc([C@H]4CC[C@H](O)CC4)c3n2)C1=O (stereo partly drawn) [Compound 162] |
| 5.00 to 6.00 | + (a ratio of >2.0 and <10) | ≥ 7.00 | Cc1nccn1CCNc1ncc2c(OC3CCNCC3)ncc([C@H]3CC[C@H](O)CC3)c2n1 [Compound 163] |
| ≥ 7.00 | ++ (a ratio of between 10 and 100) | 6.00 to 7.00 | O[C@H]1CC[C@H](c2cnc(OC3CCNCC3)c3cnc(NC4CCC(F)(F)CC4)nc32)CC1 [Compound 164] |
| ≥ 7.00 | +++ (a ratio of >100) | ≥ 7.00 | CCCC(C)Nc1ncc2c(NC3CCN(C(=O)C(F)(F)F)CC3)ncc([C@H]3CC[C@H](O)CC3)c2n1 (stereo partly drawn) [Compound 165] |
| ≥ 7.00 | +++ (a ratio of >100) | ≥ 7.00 | CCCC(C)Nc1ncc2c(OC3CCNCC3)ncc([C@H]3CC[C@H](O)CC3)c2n1 (stereo partly drawn) [Compound 166] |
| ≥ 7.00 | ++ (a ratio of between 10 and 100) | ≥ 7.00 | CC1CC(Nc2ncc3c(OC4CCNCC4)ncc([C@H]4CC[C@H](O)CC4)c3n2)C1 (stereo partly drawn) [Compound 167] |
| ≥ 7.00 | ++ (a ratio of between 10 and 100) | ≥ 7.00 | CC1CC(Nc2ncc3c(OC4CCNCC4)ncc([C@H]4CC[C@@H](O)CC4)c3n2)C1 (stereo partly drawn) [Compound 168] |
| ≥ 7.00 | +++ (a ratio of >100) | ≥ 7.00 | CCCC(C)Nc1ncc2c(=O)n(CCN(C)C)cc([C@H]3CC[C@H](O)CC3)c2n1 (stereo partly drawn) [Compound 169] |
| ≥ 7.00 | +++ (a ratio of >100) | ≥ 7.00 | CCCC(C)Nc1ncc2c(OC3CCN(CCC(=O)N(C)C)CC3)ncc([C@H]3CC[C@H](O)CC3)c2n1 (stereo partly drawn) [Compound 170] |
| ≥ 7.00 | +++ (a ratio of >100) | ≥ 7.00 | CCC[C@H](C)Nc1ncc2c(OC3CCNCC3)ncc([C@H]3CC[C@H](O)CC3)c2n1 [Compound 171] |
| ≥ 7.00 | +++ (a ratio of >100) | ≥ 7.00 | CCCC(C)Nc1ncc2c(OC3CCN(CC(=O)N(C)C)CC3)ncc([C@H]3CC[C@H](O)CC3)c2n1 (stereo partly drawn) [Compound 172] |
| ≥ 7.00 | +++ (a ratio of >100) | ≥ 7.00 | CCCC(C)Nc1ncc2c(OC3CCN(CCOC)CC3)ncc([C@H]3CC[C@H](O)CC3)c2n1 (stereo partly drawn) [Compound 173] |
| ≥ 7.00 | ++ (a ratio of between 10 and 100) | 6.00 to 7.00 | CCCC(C)Nc1ncc2c(O[C@@H]3C[C@H]4CC[C@@H](C3)O4)ncc([C@H]3CC[C@H](O)CC3)c2n1 (stereo partly drawn) [Compound 174] |
| ≥ 7.00 | ++ (a ratio of between 10 and 100) | 6.00 to 7.00 | CCCC(C)Nc1ncc2c(O[C@H]3C[C@H]4CC[C@@H](C3)O4)ncc([C@H]3CC[C@H](O)CC3)c2n1 (stereo partly drawn) [Compound 175] |
| ≥ 7.00 | +++ (a ratio of >100) | ≥ 7.00 | CCCC(C)Nc1ncc2c(O[C@H]3C[C@@H](O)C3)ncc([C@H]3CC[C@H](O)CC3)c2n1 (stereo partly drawn) [Compound 176] |
| ≥ 7.00 | +++ (a ratio of >100) | ≥ 7.00 | CCCC(C)Nc1ncc2c(=O)n(CCN3CCOCC3)cc([C@H]3CC[C@H](O)CC3)c2n1 (stereo partly drawn) [Compound 177] |
| ≥ 7.00 | +++ (a ratio of >100) | ≥ 7.00 | CC(C)C(C)Nc1ncc2c(OC3CCNCC3)ncc([C@H]3CC[C@H](O)CC3)c2n1 (stereo partly drawn) [Compound 178] |
| ≥ 7.00 | +++ (a ratio of >100) | ≥ 7.00 | CCCC(C)Nc1ncc2c(N3CCC[C@H](N(C)C)C3)ncc([C@H]3CC[C@H](O)CC3)c2n1 (stereo partly drawn) [Compound 180] |
| ≥ 7.00 | ++ (a ratio of between 10 and 100) | < 5.00 | CCCC(C)Nc1ncc2c(N3CC(N(C)C)C3)ncc([C@H]3CC[C@H](O)CC3)c2n1 (stereo partly drawn) [Compound 181] |
| ≥ 7.00 | ++ (a ratio of between 10 and 100) | 6.00 to 7.00 | CCCC(C)Nc1ncc2c(OCCN3CCOCC3)ncc([C@H]3CC[C@H](O)CC3)c2n1 (stereo partly drawn) [Compound 182] |
| ≥ 7.00 | ++ (a ratio of between 10 and 100) | < 5.00 | O[C@H]1CC[C@H](c2cnc(OC3CCNCC3)c3cnc(NC4CCCCC4)nc32)CC1 [Compound 183] |

| Structure (SMILES) | pIC50 [1] | Mer/Flt3 ratio (FLT3 IC50/Mer IC50) [1] | pIC50 [2] |
| --- | --- | --- | --- |
| CCCC(C)Nc1ncc2c(N(C)C3CCNCC3)ncc([C@H]3CC[C@H](O)CC3)c2n1 (stereo partly drawn) [Compound 179] | ≥ 7.00 | ++ (a ratio of between 10 and 100) | ≥ 7.00 |
